We go through 71 compounds from ChEMBL document CHEMBL3507680, “University of Dundee, Gates Library screen for HepG2 cell viability”.

The series is described as follows: Human HepG2 cell viability assay in 384 well format. The series is classed as toxicity, cell-based. On the set-up: dose 125 nL, time 70.5 hour; concentration not given beside the values. The note with it: HepG2 cells, read-out: Inhibition.
As for `CC(C)COc1cncc(N2CCCN(CC(F)(F)F)CC2)n1`, the cytotoxicity at 70.5 h was -5.33%. The value for `O=C(c1ccccc1)N1CCOC2(CCN(Cc3cccs3)CC2)C1` was 12.2%; that for `CN(Cc1ccsc1)C(=O)CS(=O)(=O)Cc1ccc(Cl)c(Cl)c1` was -9.28%. With `c1ccc(-n2ncc(CN3CCCC3Cn3cccn3)n2)cc1` (stereo unspecified), the cytotoxicity at 70.5 h is -15.5%. Take `CC(C)N1CC[C@H]2[C@H](C[C@@H](Cn3cccn3)N2c2nccs2)C1`: the cytotoxicity at 70.5 h is -4.28%.

In the case of `Cc1noc(C)c1CCC(=O)N1CCN(CCn2cccn2)CC1`, the cytotoxicity at 70.5 h worked out at 14.6%. For `CC(C)(CNC(=O)OC(C)(C)C)NC(=O)C1CC(=O)N(C2CC2)C1` (stereo unspecified) the value was 13.1%; for `Cc1c(-c2cc(-c3cnn(C)c3C)n(CC(=O)NC3CC3)n2)cnn1C`, 19.6%; for `Cn1cnc2c1CCN(Cc1cccc(OCC(N)=O)c1)C2`, -9.69%. For `CNC(=O)c1sc2ccccc2c1CC1CCCCN1Cc1ncc[nH]1` (stereo unspecified) the value was -7.25%; for `O=C1CN(C(=O)C2CCCOC2)CCN1Cc1ccc(Cl)cc1` (stereo unspecified), -5.9%; for `Cc1ccccc1-c1noc(CNc2ccc(F)cc2OCCO)n1`, 1.21%. Turning to `COc1ccc(COCC(=O)N2CCCC(n3cncn3)C2)cc1` (stereo unspecified), the cytotoxicity at 70.5 h is 19.2%. For `CS(=O)(=O)N1C[C@@H]2COC[C@]2(CN2CCOCC2)C1` the value was -8.04%; for `O=C1NCCN1CCNc1cc(-c2ccccc2)nc2ccnn12`, -2.75%. The value for `c1cn(-c2ccc(CN3CCCC3)cc2)c(-c2cc3n(n2)CCNC3)n1` was -6.8%; that for `Cn1ccnc1CN1CCN(Cc2ccc(C#N)cc2F)CC1` was -1.66%. The value for `CO[C@H]1CN(C(=O)OC(C)(C)C)CC1NCc1ccco1` (stereo partly specified) was -24.9%. Consider `CN(C)CC(=O)N1CCC2(CC(=O)N(c3cccc(C#N)c3)C2)C1` (stereo unspecified), for which the cytotoxicity at 70.5 h worked out at 4.59%.

Regarding `Cn1ccnc1-c1ccc(NCC2COc3ccccc3O2)nn1` (stereo unspecified), the cytotoxicity at 70.5 h came to 1.13%. Regarding `O=C1NC(C(=O)NCc2cccnc2Oc2ccc(F)cc2F)CO1` (stereo unspecified), the cytotoxicity at 70.5 h was -18.3%. `CNC(=O)c1cccnc1N1CCC(Oc2ccc(F)cc2)CC1`: the cytotoxicity at 70.5 h was -14.2%. The value for `CC(C)N(C)Cc1cc(=O)n2c(n1)CN(S(=O)(=O)C1CC1)CCC2` was -7.06%. The value for `CCCNC(=O)C(C)n1nc(-c2ccc(C)o2)cc(N)c1=O` (stereo unspecified) was -1.77%. Turning to `Cc1cccc(C2(CNC(=O)CO)CCCC2)c1`, the cytotoxicity at 70.5 h was 17.1%. For `Cc1ccc(CC(=O)N2CCN(C3CCOC3=O)CC2)cc1` (stereo unspecified) the value was -1.49%; for `CN(C)C[C@H]1C[C@@H](CO)CN(C(=O)CCc2nc(Cl)n[nH]2)C1`, 4.5%; for `O=C(NC1CC1)c1cc(NC(=O)N2CCCC(O)C2)ccc1Cl` (stereo unspecified), -7.86%. For `CCN(C)CC(C)Cn1cnc(-c2ccccc2)c1-c1cncn1CC` (stereo unspecified) the value was -10.8%.

Consider `CNC(=O)CN1CCC(NC2CSCCc3ccccc32)CC1` (stereo unspecified), for which the cytotoxicity at 70.5 h came out at 0.136%.

Take `Cc1cc(NC(=O)NCC(O)c2ccc(F)c(F)c2)n(C)n1` (stereo unspecified): the cytotoxicity at 70.5 h worked out at 13.9%.

Turning to `CC(CCNC(=O)NCCc1ccncc1)c1ccccc1` (stereo unspecified), the cytotoxicity at 70.5 h was -0.345%. The value for `Cc1ccc(C(=O)N2CCC3(CC2)c2ccccc2[C@@H](N)[C@@H]3O)c(=O)[nH]1` was -7.97%; that for `N#Cc1cccnc1N1CCCC(CO)(Cc2ccccc2F)C1` (stereo unspecified) was -4.89%; that for `Cc1ccnc(N2CCN(Cc3ccccc3)CC(O)C2)c1` (stereo unspecified) was -3.12%.

Take `CN(C)C(=O)COC[C@@]12CCC[C@@H]1CN(C1CCC1)C2`: the cytotoxicity at 70.5 h is -10.9%.

`COc1cccc2c1OCCCN(c1nc(C)nc3c1CCNCC3)C2`: the cytotoxicity at 70.5 h was -5.98%. The value for `C[C@H]1C[C@@H]2CCN(Cc3nccs3)C[C@H]2O1` was -9.2%.

Consider `CC1(C)CN(C(=O)Nc2ccc(Cn3cccn3)cc2)CCO1`, for which the cytotoxicity at 70.5 h is -3.49%. In the case of `O=C(Cn1nnc(-c2cc3ccccc3o2)n1)N1CCOCC1`, the cytotoxicity at 70.5 h is -18.1%. The value for `Cn1cc(CNC(=O)C2CCCN(Cc3cccc(F)c3)C2)cn1` (stereo unspecified) was -11.1%; that for `OCc1ccc(-c2nccn2CCc2nc3c(s2)CCCC3)o1` was 9.89%; that for `COc1ccc(OCc2nc(C(=O)N3CC(O)C3)co2)cc1` was -8.01%. The value for `O=C(c1ccsc1)N1CCC(c2nnc(C3CC3)o2)CC1` was 28.3%.

For `CN(Cc1ccco1)C(=O)c1ccc(=O)n(C)c1`, the cytotoxicity at 70.5 h is -6.1%. For the compound `Cc1ncnc2c1CCN(Cc1cccs1)CC2`, the cytotoxicity at 70.5 h is 22.9%. For `CCc1nncn1CCNC(=O)Nc1ccc2c(c1)CCCO2` the value was 1.85%.

Turning to `CN(Cc1cnn(C)c1)C(=O)Cn1c(CS(C)(=O)=O)nc2ccccc21`, the cytotoxicity at 70.5 h was -12.9%. For `CCOc1cccc(C(=O)NCCC(=O)NCc2ccncc2)c1` the value was 23%; for `CC1=C(C#N)C(=O)N(C)C(=O)/C1=C\C1=Cc2ccccc2OC1`, 8.21%; for `O=C1CSC(c2ccsc2)c2c(n(C3CCCC3)[nH]c2=O)N1` (stereo unspecified), -12.7%. For `CCc1cc(=O)[nH]c(-c2ccc(NC(C)COC)nc2)n1` (stereo unspecified), the cytotoxicity at 70.5 h amounted to 2.74%. The value for `c1ncc(-c2ccc(C3CNCCO3)nc2)cn1` (stereo unspecified) was -3.27%.

As to `CCOCCN1CCN(Cc2nc(C)no2)CC1CC` (stereo unspecified), the cytotoxicity at 70.5 h was -2.4%. For `O=C(c1cnc(C2CC2)s1)N1CCCC1Cn1cccn1` (stereo unspecified) the value was -4.89%; for `Fc1ccc(OCCNC2CCN(Cc3ccncc3)CC2)c(F)c1`, 12.1%; for `COc1ccc(OC)c(C2CCN(C(=O)CCc3n[nH]c(N)n3)C2)c1` (stereo unspecified), 12.4%. The value for `O=C(NCC1(CO)CC1)c1ccccc1C(F)(F)F` was -9.3%. With `COc1c(Br)cccc1CCNC(=O)c1csnn1`, the cytotoxicity at 70.5 h was -11.9%. The value for `Cc1nnc(CN2CCC(c3nc4cc(Cl)ccc4o3)CC2)n1C` was -18.9%; that for `CCOc1cncc(N2CCOCC2)n1` was -7.42%; that for `c1ccc(C(CNc2ncccn2)N2CCOCC2)nc1` (stereo unspecified) was -1.54%. The value for `CN1C(=O)C2(CC(=O)Nc3[nH]ncc32)c2cc(F)ccc21` (stereo unspecified) was -19.4%. For `CN(C)C(=O)CN1CCC2(CC1)COc1ccccc1S(=O)(=O)N(C)C2` the value was 0.16%; for `Cc1cnc(C(C)(C)NC(=O)NCc2ccc(C#N)cc2F)s1`, -5.64%; for `Cc1noc(C)c1CN1CCO[C@H]2CN(C(=O)N3CCCC3)C[C@H]21`, 0.539%. As for `CC(C)n1ccc2ccc(C(=O)NC3CN4CCC3CC4)cc21` (stereo unspecified), the cytotoxicity at 70.5 h was -17.1%.

As for `COc1ccccc1CC1CCN(C(=O)CCN2CCOC2=O)CC1`, the cytotoxicity at 70.5 h is 2.48%.

As to `Cc1cc2n(n1)CC(CNCc1ccc(OCC3CC3)nc1)CN2` (stereo unspecified), the cytotoxicity at 70.5 h came out at 7.09%. The value for `COc1cccc(-c2n[nH]cc2CNC2CCC(O)CC2)c1` (stereo unspecified) was -15.9%. The value for `CCc1ncc2c(n1)CN(C(=O)Cc1cc(OC)cc(OC)c1)C2` was -14%.
